Data published in patent US20060141047A1, “Methods and compositions for delivery of catecholic butanes for treatment of obesity” (priority 2003, published 2006).
Like-named read-outs stand apart in the source and are kept apart here.

Tests used:
[1] = Tissue distribution of 3H-M4N after a single intraperitoneal or intravenous injection; format: in vivo, mice; conditions: 3 hours post-injection, i.p. or i.v.
Description: M4N Tissue Distribution Studies Using 3H—M4N. […] The insoluble pellet was then further extracted with EtOH.
A mixture of tritiated and cold M4N was dissolved in a 6% Cremaphor EL, 6% ethanol, 88% saline solvent then injected intraperitoneally (i.p.) and intravenously (i.v.) via tail vein into mice. At 3 hours post-injection, the organs and blood were harvested and weighed, and the M4N was extracted. […] M4N was successfully distributed to various organs at 3 hours post-injection by both i.p. and i.v. routes of administration. […] Corroborating this, a very similar profile of distribution was observed using an oral route of administration described below. The majority of the recovered radioactivity localized to the gastrointestinal tract organs: the stomach, small intestine, caecum, and large intestine, in the range of 3 μg to 20 μg of M4N per gram of tissue.

[2] = Fresh weights of isolated organs after 20 week feeding with fat-rich diet containing M4N; format: in vivo, mice
Description: (§1) While no definite conclusions can be made regarding most organs due to the small size of the populations tested, a decrease in adipocyte (fat cells) weight was nevertheless significant (0.84 g vs. 0.196 g) following a 20 week feeding with a fat-rich diet containing M4N. In particular, fat tissues from two control mice (C24 and C25) which were fed a fat-rich diet without M4N were isolated and incubated with CREM solvent or with CREM solvent plus M4N for a total period of 6 days (first extract 72 hours and second extract for an additional 72 hours). The fat cell weights were measured at 0 time, the third day and the sixth day following incubation in CREM solvent and without M4N.

fat tissues = assay: Incubation of isolated fat tissue with CREM solvent plus M4N, fat weight; set-up: species or system mice
Description: as §1

[3] = dogs
Description: In this example the Maximal Tolerable Dose (MTD) of two different formulations of M4N [Cremaphor-Ethanol (CET) or Dimethyl Sulfoxide (DMSO)] to male and female Beagle Dogs was determined.
Dogs were treated prophylactically with an analgesic and antibiotic on the day of surgery and with antibiotics and/or analgesics following surgery (according to Gene Logic Inc. SOP Nos. 324.0.2, 325.0.1, and 326.0.2, as appropriate.) Other treatments were provided as recommended by the staff veterinarian. The catheter lines were flushed with saline during the postoperative recovery period with a frequency deemed appropriate by the Study Director.
Thus the M4N-DMSO group animals were administered with M4N-DMSO with eight intravenous injections via the non-VAP jugular vein every 30 minutes over a 4-hour period. This frequency of delivery mimicked the delivery of the test article using the infusion pump.
Animals from the CET group were observed during the entire infusion period and for at least one hour following end of infusion. The dogs in the DMSO group were observed throughout the jugular vein injection period and for at least one hour following the last (eighth) injection.

[4] = Toxicokinetic (TK) analysis of M4N serum concentration; format: in vivo, Beagle Dogs; conditions: dogs, CET or DMSO formulations, minimal toxicity
Description: Blood samples from the CET group animals were collected via the jugular vein on Study Day (SD) 1, SD 3, SD 6, and SD 8 at the following time points: predose, 0.25, 0.5, 1, 2, 4, 8, and 16 hours following the completion of the approximate 4-hour infusion.
Blood samples from the DMSO group animals were collected via the cephalic vein on SD 1, SD 3, SD 6, and SD 8 at the following time points: predose, 0.25, 0.5, 1, 2, 4, 8, and 16 hours following the final injection dose of M4N-DMSO.
Blood samples collected from both groups of animals were processed for plasma and serum for TK analysis.
The plasma and serum samples were sent to MedTox Laboratories, the Sponsor's designated laboratory for TK analysis. TK analysis of M4N plasma and serum concentration-time data was performed using a validated method (M200406) by MedTox Laboratories and analyzed by noncompartmental methods to obtain estimates of toxicokinetic parameters (where data allow), but not necessarily limited to, Cmax, Tmax and AUC.

Q: What does the source list for `COc1ccc(C[C@@H](C)[C@@H](C)Cc2ccc(OC)c(OC)c2)cc1OC` [M4N, meso-1,4-bis(3,4-dimethoxyphenyl)-2,3-dimethylbutane]?
A: M4N detected in heart or blood [1]: Little or no M4N; M4N present in liver and fat [1]: Significant quantities; Fresh organ weight, Bladder ([2]; Female, 20 week feeding): 0.034 g; Fresh organ weight, Caecum ([2]; Female, 20 week feeding): 0.162 g; Fresh organ weight, Colon ([2]; Female, 20 week feeding): 0.195 g; Fresh organ weight, Heart ([2]; Female, 20 week feeding): 0.107 g; Fresh organ weight, Kidney ([2]; Female, 20 week feeding): 0.3 g; Fresh organ weight, Liver ([2]; Female, 20 week feeding): 1.153 g; Fresh organ weight, Lung ([2]; Female, 20 week feeding): 0.205 g; Fresh organ weight, Pancreas ([2]; Female, 20 week feeding): 0.18 g; Fresh organ weight, Small Intestine ([2]; Female, 20 week feeding): 1.193 g; Fresh organ weight, Spleen ([2]; Female, 20 week feeding): 0.08 g; Fresh organ weight, Stomach ([2]; Female, 20 week feeding): 0.243 g; Fresh weight, Fat ([2]; Female, 20 week feeding): 0.509 g; Fresh organ weight, Bladder ([2]; Male, 20 week feeding): 0.026 g; Fresh organ weight, Caecum ([2]; Male, 20 week feeding): 0.133 g; Fresh organ weight, Colon ([2]; Male, 20 week feeding): 0.186 g; Fresh organ weight, Heart ([2]; Male, 20 week feeding): 0.319 g; Fresh organ weight, Kidney ([2]; Male, 20 week feeding): 0.35 g; Fresh organ weight, Liver ([2]; Male, 20 week feeding): 1.44 g; Fresh organ weight, Lung ([2]; Male, 20 week feeding): 0.156 g; Fresh organ weight, Pancreas ([2]; Male, 20 week feeding): 0.121 g; Fresh organ weight, Small Intestine ([2]; Male, 20 week feeding): 1.44 g; Fresh organ weight, Small Vesicles ([2]; Male, 20 week feeding): 0.154 g; Fresh organ weight, Spleen ([2]; Male, 20 week feeding): 0.065 g; Fresh organ weight, Stomach ([2]; Male, 20 week feeding): 0.177 g; Fresh organ weight, Testes ([2]; Male, 20 week feeding): 0.189 g; Fresh weight, Fat ([2]; Male, 20 week feeding with fat-rich diet): 0.196 g; Fat Weight After First Extraction (fat tissues; fat tissue of mouse C25, 72 hours in CREM solvent + 21.4 mg M4N): 0.481 g; Fat Weight After Second Extraction (fat tissues; fat tissue of mouse C25, additional 72 hours (6 days total) in CREM solvent + M4N): 0.059 g; Dose safely administered by intravenous infusion over four hours ([3]; CET vehicle): up to 10 mg/kg; Dose safely administered by intravenous infusion over four hours ([3]; DMSO vehicle): up to 100 mg/kg; Blood levels of M4N achieved [4]: up to 14,000 ng/ml
